# Data from patent publication US9434734B2, “Substituted pyrazoloquinazolinones and pyrroloquinazolinones as allosteric modulators of group II metabotropic glutamate receptors” (Domain Therapeutics, priority 2012, dated 2016).
# Target: T1, human mGluR2 (hmGluR2) transiently over-expressed in HEK-293 cells (Homo sapiens, UniProt Q14416)
# T1 construct: expressed in transfected cells; host or cells: HEK-293 cells, transient co-transfection by electroporation
# Assay: Human mGluR2 negative allosteric modulator evaluation using Ca++ functional assay (agonist and NAM activity)
# Assay type: cell-based
# Conditions: hmGluR2 in HEK-293 cells, EC80 glutamate, Fluo4AM calcium readout; read-out: mGluR2 negative allosteric modulator activity IC50
# Method: Human mGluR2 Negative Allosteric Modulator Evaluation Using Ca^++ Functional Assay
# Compounds of the present invention were tested successively for their agonist and negative allosteric modulator activities on human mGluR2 (hmGluR2) transiently over-expressed in HEK-293 cells. They exert agonist activity if they are able to activate mGluR2 by themselves, i.e., in absence of the endogenous agonist glutamate; and they exert negative allosteric modulator activity if they decrease the action of the endogenous agonist glutamate.
# HEK-293 cells were maintained in Modified Eagle's Medium supplemented with 10% Foetal Calf Serum, 1% Penicillin/Streptomycin and 1% nonessential amino acids at 37° C./5% CO2.
# Cells were plated after transfection onto polyornithine coated, clear bottom, black-walled, 96-well plates and cultured for 24 h.
# Receptor activity was detected by changes in intracellular calcium measured using the fluorescent Ca^2+ sensitive dye, Fluo4AM (Molecular Probes).
# The day of the assay, medium was aspirated and replaced during 3 hours by medium without serum supplemented with 1% Glutamax, 1% Penicillin/Streptomycin and 1% nonessential amino acids. Then, cells were washed with freshly prepared buffer B (HBSS 1× (PAA), Hepes 20 mM, MgSO4-7H2O 1 mM, Na2CO3 3.3 mM, CaCl2-2H2O 1.3 mM, 0.5% BSA, Probenecid 2.5 mM) and loaded at 37° C./5% CO2 for 1.5 hours with buffer B containing 1 μM Fluo4AM, 0.1 mg/mL Pluronic Acid, 7 μg/mL Glutamate Pyruvate Transaminase and 2 mM sodium pyruvate. Afterwards cells were washed twice with buffer B and 50 μL of this buffer were added to each well.
# Agonist and negative allosteric modulator activities of compounds were consecutively evaluated on the same cells plate. […] Then, the cells were stimulated by an EC80 glutamate concentration and fluorescence was recorded for additional 60 s. EC80 glutamate concentration is the concentration giving 80% of the maximal glutamate response. Agonist and/or negative allosteric modulator activity(ies) were evaluated in comparison to basal signal or signal evoked by EC80 glutamate alone, respectively.
# For potency determination, a dose-response test was performed using 8 concentrations of each compound of the invention. Dose-response curves were fitted using the sigmoidal dose-response (variable slope) analysis in GraphPad Prism program (Graph Pad Inc) and EC50 of agonist/IC50 of negative allosteric modulator activity was calculated. Dose-response experiments were all performed in duplicate, two times independently.
# T1 sequence (Q14416 19-872): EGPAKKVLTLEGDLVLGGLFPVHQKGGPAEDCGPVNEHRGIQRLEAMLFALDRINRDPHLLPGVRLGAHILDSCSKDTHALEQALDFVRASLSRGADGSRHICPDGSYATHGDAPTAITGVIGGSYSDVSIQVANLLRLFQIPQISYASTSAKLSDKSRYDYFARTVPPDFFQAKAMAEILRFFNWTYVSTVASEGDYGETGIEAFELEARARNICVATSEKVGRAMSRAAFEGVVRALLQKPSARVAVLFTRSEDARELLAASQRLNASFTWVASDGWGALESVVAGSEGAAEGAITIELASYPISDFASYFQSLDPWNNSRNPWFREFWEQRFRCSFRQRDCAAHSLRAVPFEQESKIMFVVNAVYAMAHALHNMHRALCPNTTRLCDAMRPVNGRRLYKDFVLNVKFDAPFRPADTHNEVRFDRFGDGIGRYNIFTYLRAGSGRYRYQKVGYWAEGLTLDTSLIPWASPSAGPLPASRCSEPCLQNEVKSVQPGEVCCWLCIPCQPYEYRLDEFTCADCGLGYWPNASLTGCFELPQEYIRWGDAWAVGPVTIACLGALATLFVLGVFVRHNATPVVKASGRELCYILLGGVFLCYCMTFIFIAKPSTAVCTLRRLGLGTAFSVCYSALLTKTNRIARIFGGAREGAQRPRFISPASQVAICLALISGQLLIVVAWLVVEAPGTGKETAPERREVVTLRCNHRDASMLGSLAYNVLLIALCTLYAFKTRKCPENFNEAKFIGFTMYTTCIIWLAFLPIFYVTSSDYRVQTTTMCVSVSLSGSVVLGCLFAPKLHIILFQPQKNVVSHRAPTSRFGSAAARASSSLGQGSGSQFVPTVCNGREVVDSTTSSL
row,IC50 [nM],Compound
1,< 1000,"Cn1c(=O)c2ccc(-c3ccc(N)nc3)cc2n2nc(C(C)(C)C)cc12 [Example 52, 8-(6-Amino-pyridin-3-yl)-2-tert-butyl-4-methyl-4H-pyrazolo[1,5-a]quinazolin-5-one]"
2,< 1000,"Cl.[2H]C([2H])([2H])n1c(=O)c2ccc(-c3ccc(N)nc3)cc2n2nc(CCOC)cc12 [Example 55, 8-(6-Amino-pyridin-3-yl)-2-(2-methoxy-ethyl)-4-methyl(D3)-4H-pyrazolo[1,5-a]quinazolin-5-one]"
3,< 1000,"Cl.[2H]C([2H])([2H])n1c(=O)c2ccc(-c3ccc(N)nc3)cc2n2nc(C3CCCC3)cc12 [Example 67, 8-(6-Amino-pyridin-3-yl)-2-cyclopentyl-4-methyl(D3)-4H-pyrazolo[1,5-a]quinazolin-5-one]"
4,< 1000,"Cl.[2H]C([2H])([2H])n1c(=O)c2ccc(-c3cc(C)nc(C)c3)cc2n2nc(C3CCCC3)cc12 [Example 68, 2-Cyclopentyl-8-(2,6-dimethyl-pyridin-4-yl)-4-methyl(D3)-4H-pyrazolo[1,5-a]quinazolin-5-one]"
5,< 1000,"Cn1c(=O)c2ccc(-c3ccc(N)nc3)cc2n2nc(C3CCCCCC3)cc12 [Example 76, 8-(6-Amino-pyridin-3-yl)-2-cycloheptyl-4-methyl-4H-pyrazolo[1,5-a]quinazolin-5-one]"
6,< 1000,"CCn1c(=O)c2ccc(-c3cc(C)nc(C)c3)cc2n2nc(C3CCCCCC3)cc12 [Example 78, 2-Cycloheptyl-8-(2,6-dimethyl-pyridin-4-yl)-4-ethyl-4H-pyrazolo[1,5-a]quinazolin-5-one]"
7,< 1000,"Cc1cc(-c2ccc3c(=O)n(C)c4cc(C5CCOCC5)nn4c3c2)ccn1 [Example 93, 4-Methyl-8-(2-methyl-pyridin-4-yl)-2-(tetrahydro-pyran-4-yl)-4H-pyrazolo[1,5-a]quinazolin-5-one]"
8,< 1000,"Cc1ccc(-c2ccc3c(=O)n(C)c4cc(C5CCOCC5)nn4c3c2)cn1 [Example 95, 4-Methyl-8-(6-methyl-pyridin-3-yl)-2-(tetrahydro-pyran-4-yl)-4H-pyrazolo[1,5-a]quinazolin-5-one]"
9,< 1000,"Cn1c(=O)c2ccc(-c3cccc(S(N)(=O)=O)c3)cc2n2nc(C3CCOCC3)cc12 [Example 100, 3-[4-Methyl-5-oxo-2-(tetrahydro-pyran-4-yl)-4,5-dihydro-pyrazolo[1,5-a]quinazolin-8-yl]-benzenesulfonamide]"
10,< 1000,"Cc1cc(-c2ccc3c(=O)n(C)c4cc(C5CCCO5)nn4c3c2)cc(C)n1 (stereo not drawn) [Example 107, 8-(2,6-Dimethyl-pyridin-4-yl)-4-methyl-2-(tetrahydro-furan-2-yl)-4H-pyrazolo[1,5-a]quinazolin-5-one]"
11,< 1000,"Cc1cc(-c2cc3n(C)c(=O)c4ccc(-c5ccc(N)nc5)cc4n3n2)cc(C)n1 [Example 112, 8-(6-Amino-pyridin-3-yl)-2-(2,6-dimethyl-pyridin-4-yl)-4-methyl-4H-pyrazolo[1,5-a]quinazolin-5-one]"
12,< 1000,"Cc1cc(-c2cc3n(C)c(=O)c4ccc(-c5cccnc5C)cc4n3n2)cc(C)n1 [Example 113, 2-(2,6-Dimethyl-pyridin-4-yl)-4-methyl-8-(2-methyl-pyridin-3-yl)-4H-pyrazolo[1,5-a]quinazolin-5-one]"
13,< 1000,"Cc1cc(-c2ccc3c(=O)n(C)c4cc(-c5cc(C)nc(C)c5)nn4c3c2)cc(C)n1 [Example 114, 2,8-Bis-(2,6-dimethyl-pyridin-4-yl)-4-methyl-4H-pyrazolo[1,5-a]quinazolin-5-one]"
14,< 1000,"Cc1cc(-c2cc3n(C)c(=O)c4ccc(-c5cccnc5)cc4n3n2)cc(C)n1 [Example 116, 2-(2,6-Dimethyl-pyridin-4-yl)-4-methyl-8-pyridin-3-yl-4H-pyrazolo[1,5-a]quinazolin-5-one]"
15,< 1000,"Cc1ccc(-c2ccc3c(=O)n(C)c4cc(-c5cc(C)nc(C)c5)nn4c3c2)cn1 [Example 117, 2-(2,6-Dimethyl-pyridin-4-yl)-4-methyl-8-(6-methyl-pyridin-3-yl)-4H-pyrazolo[1,5-a]quinazolin-5-one]"
